Measurements as given in ChEMBL document CHEMBL5543113, “Amphiphilic α-Peptoid-deoxynojirimycin Conjugate-based Multivalent Glycosidase Inhibitor for Hypoglycemic Effect and Fluorescence Imaging” (J Med Chem, 2024).
Blank lines part the entries; values can stand above or below the compound they belong to. Active and inactive are the calls of the source. No cut-off for these calls is given here.

Legend:
[1] = system: Mus musculus; experiment: Hypoglycemic activity in KKAy diabetic mouse model assessed as blood glucose level at 1.6 mg/kg, po co-administered with maltose and measured after 30 mins by glucometer (reference value: 582.6 +/- 22.9 mg/dl); assay type: functional; conditions: 0.5 h
[2] = Inhibition of C57BL/6J mouse Alpha-glucosidase incubated for 10 mins by Lineweaver-Burk plot analysis
[3] = system: Mus musculus; experiment: Hypoglycemic activity in KKAy diabetic mouse model assessed as blood glucose level at 1.6 mg/kg, po co-administered with maltose and measured after 120 mins by glucometer (reference value: 582.6 +/- 22.9 mg/dl); assay type: functional; conditions: 2 h
[4] = system: Mus musculus; experiment: Hypoglycemic activity in KKAy diabetic mouse model assessed as decrease in PBG level at 1.6 mg/kg, po co-administered with maltose and measured after 120 mins by glucometer relative to control; assay type: functional; set-up: scale not given: the % may be the effect or the level left; conditions: 2 h
[5] = system: Mus musculus; experiment: Hypoglycemic activity in C57BL/6J mouse assessed as reduction in PBG level measured per DNJ unit at 0.8 mg/kg, po co-administered with maltose and measured at 15 to 30 mins by glucometer relative to control; assay type: functional; set-up: scale not given: the % may be the effect or the level left; conditions: time 15-30 min
[6] = system: Mus musculus; experiment: Hypoglycemic activity in KKAy diabetic mouse model assessed as blood glucose level at 1.6 mg/kg, po co-administered with maltose and measured after 60 mins by glucometer (reference value: 582.6 +/- 22.9 mg/dl); assay type: functional; conditions: 1 h
[7] = system: Mus musculus; experiment: Hypoglycemic activity in KKAy diabetic mouse model assessed as decrease in PBG level at 1.6 mg/kg, po co-administered with maltose and measured after 60 mins by glucometer relative to control; assay type: functional; set-up: scale not given: the % may be the effect or the level left; conditions: 1 h
[8] = Inhibition of Aspergillus niger Alpha-glucosidase incubated for 10 mins by Lineweaver-Burk plot analysis
[9] = system: Mus musculus; experiment: Hypoglycemic activity in C57BL/6J mouse assessed as decrease in PBG level at 0.4 mg/kg, po co-administered with maltose and measured after 15 mins by glucometer relative to control; assay type: functional; set-up: scale not given: the % may be the effect or the level left; conditions: 0.25 h
[10] = system: Mus musculus; experiment: Hypoglycemic activity in KKAy diabetic mouse model assessed as decrease in PBG level at 1.6 mg/kg, po co-administered with maltose and measured after 30 mins by glucometer relative to control; assay type: functional; set-up: scale not given: the % may be the effect or the level left; conditions: 0.5 h
[11] = system: Mus musculus; experiment: Hypoglycemic activity in KKAy diabetic mouse model assessed as blood glucose level at 1.6 mg/kg, po co-administered with maltose and measured after 15 mins by glucometer (reference value: 582.6 +/- 22.9 mg/dl); assay type: functional; conditions: 0.25 h
[12] = system: Mus musculus; experiment: Hypoglycemic activity in C57BL/6J mouse assessed as decrease in PBG level at 0.4 mg/kg, po co-administered with maltose and measured after 30 mins by glucometer relative to control; assay type: functional; set-up: scale not given: the % may be the effect or the level left; conditions: 0.5 h
[13] = system: Mus musculus; experiment: Hypoglycemic activity in C57BL/6J mouse assessed as blood glucose level at 0.4 mg/kg, po co-administered with maltose and measured after 30 mins by glucometer (380.8 +/- 20.6 mg/dL); assay type: functional; conditions: 0.5 h
[14] = system: Mus musculus; experiment: Hypoglycemic activity in C57BL/6J mouse assessed as blood glucose level at 0.4 mg/kg, po co-administered with maltose and measured after 15 mins by glucometer (380.8 +/- 20.6 mg/dl); assay type: functional; conditions: 0.25 h
[15] = system: Mus musculus; experiment: Hypoglycemic activity in C57BL/6J mouse assessed as blood glucose level at 0.8 mg/kg, po co-administered with maltose and measured after 30 mins by glucometer (380.8 +/- 20.6 mg/dL); assay type: functional; conditions: 0.5 h
[16] = system: Mus musculus; experiment: Hypoglycemic activity in C57BL/6J mouse assessed as decrease in PBG level at 1.6 mg/kg, po co-administered with maltose and measured after 30 mins by glucometer relative to control; assay type: functional; set-up: scale not given: the % may be the effect or the level left; conditions: 0.5 h
[17] = system: Mus musculus; experiment: Hypoglycemic activity in C57BL/6J mouse assessed as blood glucose level at 1.6 mg/kg, po co-administered with maltose and measured after 15 mins by glucometer (380.8 +/- 20.6 mg/dL); assay type: functional; conditions: 0.25 h
[18] = system: Mus musculus; experiment: Hypoglycemic activity in C57BL/6J mouse assessed as molar reduction in PBG level at 1.6 mg/kg, po co-administered with maltose and measured after 30 mins by glucometer relative to control; assay type: functional; set-up: scale not given: the % may be the effect or the level left; conditions: 0.5 h
[19] = system: Mus musculus; experiment: Hypoglycemic activity in KKAy diabetic mouse model assessed as molar decrease in PBG level at 1.6 mg/kg, po co-administered with maltose and measured after 30 mins by glucometer relative to control; assay type: functional; set-up: scale not given: the % may be the effect or the level left; conditions: 0.5 h
[20] = system: Mus musculus; experiment: Hypoglycemic activity in C57BL/6J mouse assessed as reduction in PBG level measured per DNJ unit at 1.6 mg/kg, po co-administered with maltose and measured at 15 to 30 mins by glucometer relative to control; assay type: functional; set-up: scale not given: the % may be the effect or the level left; conditions: time 15-30 min
[21] = system: Mus musculus; experiment: Hypoglycemic activity in C57BL/6J mouse assessed as decrease in PBG level at 1.6 mg/kg, po co-administered with maltose and measured after 15 mins by glucometer relative to control; assay type: functional; set-up: scale not given: the % may be the effect or the level left; conditions: 0.25 h
[22] = molecular target: Alpha-glucosidase (Saccharomyces cerevisiae S288c) (UniProt P53341+P38158+P07265); experiment: Inhibition of Saccharomyces cerevisiae Alpha-glucosidase at 1 mM incubated for 10 mins by absorbance based microplate spectrophotometric analysis; assay type: protein assay
[23] = system: Mus musculus; experiment: Hypoglycemic activity in C57BL/6J mouse assessed as decrease in PBG level at 0.8 mg/kg, po co-administered with maltose and measured after 15 mins by glucometer relative to control; assay type: functional; set-up: scale not given: the % may be the effect or the level left; conditions: 0.25 h
[24] = Inhibition of rice Alpha-glucosidase incubated for 10 mins by Lineweaver-Burk plot analysis; set-up: species or system Oryza sativa
[25] = system: Mus musculus; experiment: Hypoglycemic activity in C57BL/6J mouse assessed as blood glucose level at 1.6 mg/kg, po co-administered with maltose and measured after 30 mins by glucometer (380.8 +/- 20.6 mg/dL); assay type: functional; conditions: 0.5 h
[26] = system: Mus musculus; experiment: Hypoglycemic activity in C57BL/6J mouse assessed as blood glucose level at 0.8 mg/kg, po co-administered with maltose and measured after 15 mins by glucometer (380.8 +/- 20.6 mg/dl); assay type: functional; conditions: 0.25 h
[27] = system: Mus musculus; experiment: Hypoglycemic activity in C57BL/6J mouse assessed as decrease in PBG level at 0.8 mg/kg, po co-administered with maltose and measured after 30 mins by glucometer relative to control; assay type: functional; set-up: scale not given: the % may be the effect or the level left; conditions: 0.5 h
[28] = system: Mus musculus; experiment: Hypoglycemic activity in KKAy diabetic mouse model assessed as decrease in PBG level at 1.6 mg/kg, po co-administered with maltose and measured after 15 mins by glucometer relative to control; assay type: functional; set-up: scale not given: the % may be the effect or the level left; conditions: 0.25 h
[29] = system: Mus musculus; experiment: Hypoglycemic activity in C57BL/6J mouse assessed as reduction in PBG level measured per DNJ unit at 0.4 mg/kg, po co-administered with maltose and measured at 15 to 30 mins by glucometer relative to control; assay type: functional; set-up: scale not given: the % may be the effect or the level left; conditions: time 15-30 min
[30] = Self assembly property of the compound in water assessed as mean diameter at 1 x 10^-4 M by dynamic light scattering spectrometric analysis; assay type: physicochemical; conditions: buffer, 100 µM; dose 1 10^-4M
[31] = Self assembly property of compound in citric acid-phosphate buffer at pH 2 at 1 x 10^-4 M assessed as diameter by dynamic light scattering spectrometric analysis; assay type: physicochemical; conditions: pH 2, 100 µM, dose 1 10^-4M
[32] = Self assembly property of the compound in water assessed as diameter at 1 x 10^-4 M by transmission electron microscopic analysis; assay type: physicochemical; conditions: buffer, 100 µM; dose 1 10^-4M
[33] = Self assembly property of compound in citric acid-phosphate buffer at pH 3 to 7 at 1 x 10^-4M assessed as diameter by dynamic light scattering spectrometric analysis; assay type: physicochemical; conditions: pH 3, 100 µM, dose 1 10^-4M
[34] = system: Mus musculus; experiment: Hypoglycemic activity in KKAy diabetic mouse model assessed as decrease in PBG level at 1.6 mg/kg, po co-administered with 1 g/kg maltose measured after 15 mins by glucometer relative to control; assay type: functional; set-up: scale not given: the % may be the effect or the level left; conditions: 0.25 h
[35] = system: Mus musculus; experiment: Hypoglycemic activity in KKAy diabetic mouse model assessed as blood glucose level at 1.6 mg/kg, po co-administered with 1 g/kg maltose and measured after 15 mins by glucometer (reference value: 453 +/- 38.6 mg/dl); assay type: functional; conditions: 0.25 h
[36] = system: Mus musculus; experiment: Hypoglycemic activity in KKAy diabetic mouse model assessed as blood glucose level at 1.6 mg/kg, po co-administered with 1 g/kg maltose and measured after 30 mins by glucometer (reference value: 491.4 +/- 22.5 mg/dl); assay type: functional; conditions: 0.5 h
[37] = system: Mus musculus; experiment: Hypoglycemic activity in KKAy diabetic mouse model assessed as decrease in PBG level at 1.6 mg/kg, po co-administered with 1 g/kg maltose measured after 30 mins by glucometer relative to control; assay type: functional; set-up: scale not given: the % may be the effect or the level left; conditions: 0.5 h
[38] = system: Mus musculus; experiment: Hypoglycemic activity in KKAy diabetic mouse model assessed as decrease in PBG level at 1.6 mg/kg, po co-administered with 1 g/kg maltose measured at 60 to 120 mins by glucometer; assay type: functional, organism-based; conditions: time 60-120 min
[39] = system: Mus musculus; experiment: Hypoglycemic activity in KKAy diabetic mouse model assessed as blood glucose level at 1.6 mg/kg, po co-administered with 1 g/kg maltose and measured after 120 mins by glucometer (reference value: 278.4 +/- 14.9 mg/dl); assay type: functional; conditions: 2 h
[40] = system: Mus musculus; experiment: Hypoglycemic activity in KKAy diabetic mouse model assessed as blood glucose level at 1.6 mg/kg, po co-administered with 1 g/kg maltose and measured after 60 mins by glucometer (reference value: 498.6 +/- 31.6 mg/dl); assay type: functional; conditions: 1 h

Ki [2]: 1.46 µM
Ki [8]: 20.6 µM
inhibition [22]: inactive
Ki [24]: 0.18 µM
SMILES: OCCN1C[C@H](O)[C@@H](O)[C@H](O)[C@H]1CO [MIGLITOL]
Activity [1]: 535.8 mg/dL
Activity [3]: 397.2 mg/dL
Activity [4]: 9.4%
Activity [5]: 4.3%
Activity [6]: 512.4 mg/dL
Activity [7]: 7.7%
Activity [9]: 6.2%
Activity [10]: 8.6%
Activity [11]: 532.2 mg/dL
Activity [12]: 8.2%
Activity [13]: 349.5 mg/dL
Activity [14]: 348.8 mg/dL
Activity [15]: 318.2 mg/dL
Activity [16]: 21.9%
Activity [17]: 298.8 mg/dL
Activity [18]: 2.8%
Activity [19]: 1.1%
Activity [20]: 2.8%
Activity [21]: 19.6%
Activity [23]: 10.7%
Activity [25]: 297.4 mg/dL
Activity [26]: 331.9 mg/dL
Activity [27]: 16.5%
Activity [28]: 3.2%
Activity [29]: 4.2%

Ki [2]: 15.4 µM
Ki [8]: 37.4 µM
Activity [30]: 252 nm
Activity [31]: 211 nm
Activity [32]: 79 nm
Activity [33]: ~ 250 nm
inhibition [22]: inactive
Ki [24]: 0.44 µM
SMILES: CCCCCCCCCCCCCCCCCCNC(=O)CN(Cc1cn(CCCN2C[C@H](O)[C@@H](O)[C@H](O)[C@H]2CO)nn1)C(=O)CN(Cc1cn(CCCN2C[C@H](O)[C@@H](O)[C@H](O)[C@H]2CO)nn1)C(=O)CN(Cc1cn(CCCN2C[C@H](O)[C@@H](O)[C@H](O)[C@H]2CO)nn1)C(=O)CN(Cc1cn(CCCN2C[C@H](O)[C@@H](O)[C@H](O)[C@H]2CO)nn1)C(C)=O

Ki [2]: 0.039 µM
Ki [8]: 3.6 µM
inhibition [22]: inactive
Ki [24]: 0.017 µM
SMILES: OC[C@H]1NC[C@H](O)[C@@H](O)[C@@H]1O [DUVOGLUSTAT]
Activity [34]: 21.8%
Activity [35]: 354 mg/dL
Activity [36]: 476.4 mg/dL
Activity [37]: 3.1%
Activity [38]: inactive
Activity [39]: 296.4 mg/dL
Activity [40]: 489 mg/dL
